Experimental data: patent US20240216514A1, “NOVEL ANTITUMOR COMPOUNDS AND RELATED METHODS OF MANUFACTURE AND USE” (KLOTHO THERAPEUTICS, INC., priority 2021, published 2024)

Legend:
[1] = Chemoprotection against cisplatin-induced myelotoxicity; details: preliminary results
Text: Accordingly, by combining PTBA or its analogs with cisplatin through chemical conjugation, not only will the conjugate drug have the potential to act as a synergistic anti-cancer drug combination in its own right, but PTBA and its analogs will also provide for chemoprotection against nephrotoxicity during cancer therapy. […] By reducing adverse side effects, this chemoprotective characteristic of PTBA and its analogs, co-administered as a chemical conjugate with cisplatin, has the potential to increase drug tolerability, to permit uninterrupted treatment schedules, and to eliminate the need to reduce drug doses.

[2] = tested on: nephrotoxin-induced and ischemia/reperfusion-induced kidney injury; details: rodents; cited from earlier work
H929 = assay: Tumor cell growth inhibition, CellTiter-Glo viability, H929; type: cell-based; details: H929, Bone Marrow; 72 hours
Protocol: (§1) To support the potential of compounds of the invention as antitumor agents, their ability to inhibit tumor cell growth across a range of cancer types was evaluated, compared to cisplatin (See FIGS. 3A-3C and FIGS. 4A-4C). Cancer cells were seeded at optimized density on 384-well plates in appropriate media for 24 hours in triplicate for each test article. Titrated compounds or cisplatin were added to cultures for 72 hours with 3-fold dilutions totaling 9 concentrations starting from 30 uM for compounds or 50 uM for cisplatin (see FIGS. 3A-3C). Cell viability was then determined by CellTiter-Glo® Luminescent Cell Viability Assay from Promega, Madison Wisconsin. A dose response curve (see FIGS. 4A-4C) was fitted from luminance activity and the IC50 for each test article was calculated using a four-parameter variable slope in GraphPad Prism version 8.0.0 for Windows, GraphPad Software, San Diego, California USA, www.graphpad.com. Conjugates were more cytotoxic to cancer cells compared to cisplatin alone, some were particularly noteworthy in colon cancer (HCT-15), prostate cancer (PC-3), and breast cancer (MCF-7) cells compared to cisplatin (see, also, Table 1, below).

MCF-7 = assay: Tumor cell growth inhibition, CellTiter-Glo viability, MCF-7; type: cell-based; details: MCF-7, Breast; 72 hours
Protocol: as §1

MDA-MB-231 = assay: Tumor cell growth inhibition, CellTiter-Glo viability, MDA-MB-231; type: cell-based; details: MDA-MB-231, Breast; 72 hours
Protocol: as §1

Hela = assay: Tumor cell growth inhibition, CellTiter-Glo viability, Hela; type: cell-based; details: Cervical, 72 hours
Protocol: as §1

HCT-15 = assay: Tumor cell growth inhibition, CellTiter-Glo viability, HCT-15; type: cell-based; details: HCT-15, Colon; 72 hours
Protocol: as §1

Huh-7 = assay: Tumor cell growth inhibition, CellTiter-Glo viability, Huh-7; type: cell-based; details: Huh-7, Liver; 72 hours
Protocol: as §1

HepG2-PM4 = assay: Tumor cell growth inhibition, CellTiter-Glo viability, HepG2-PM4; type: cell-based; details: HepG2-PM4, Liver; 72 hours
Protocol: as §1

LNCap = assay: Tumor cell growth inhibition, CellTiter-Glo viability, LNCap; type: cell-based; details: Prostate, 72 hours
Protocol: as §1

PC-3 = assay: Tumor cell growth inhibition, CellTiter-Glo viability, PC-3; type: cell-based; details: PC-3, Prostate; 72 hours
Protocol: as §1

HDAC8 = HDAC8 (Homo sapiens, UniProt Q9BY41); details: cited from earlier work
Sequence of HDAC8 (Q9BY41 whole entry): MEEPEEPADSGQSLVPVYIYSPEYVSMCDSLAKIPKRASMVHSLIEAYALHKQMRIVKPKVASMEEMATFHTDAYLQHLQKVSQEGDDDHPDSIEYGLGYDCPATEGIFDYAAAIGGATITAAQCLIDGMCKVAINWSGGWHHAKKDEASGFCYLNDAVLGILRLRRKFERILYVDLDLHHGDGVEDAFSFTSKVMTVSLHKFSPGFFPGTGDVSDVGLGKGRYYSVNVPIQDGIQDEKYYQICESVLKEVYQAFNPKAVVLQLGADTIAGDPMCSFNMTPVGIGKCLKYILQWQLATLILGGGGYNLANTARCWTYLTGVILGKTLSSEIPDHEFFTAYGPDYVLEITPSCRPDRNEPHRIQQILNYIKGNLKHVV

O=C(O)CCCSc1ccccc1 [PTBA, 4-(phenylthio)butanoic acid]
Chemoprotective effect against cisplatin-induced myelotoxicity [1]: chemoprotective effect | Recovery of kidney function after AKI [2]: significantly accelerate recovery of kidney function

N.N.[Cl][Pt][Cl] [Cisplatin, cisdiamminedichloroplatinum [II]]
IC50 (H929): 2350 nM | IC50 (MCF-7): 2250 nM | IC50 (MDA-MB-231): 2850 nM | IC50 (Hela): 12.3 µM | IC50 (HCT-15): 24.3 µM | IC50 (Huh-7): 6.47 µM | IC50 (HepG2-PM4): 14 µM | IC50 (LNCap): 10.9 µM | IC50 (PC-3): 22 µM

Trichostatin A
Concentration that completely inhibits HDAC8 activity (HDAC8): 5 µM

O=C(CCCCCCC(=O)Nc1ccccc1)NO [Vorinostat, suberoylanilide hydroxamic acid]
Inhibition of HDAC8 (potency range) (HDAC8): micromolar range
